Values after ≈ are worked out from the molar mass of the structure shown.
Key:
[1] = system: Mycobacterium tuberculosis; assay: Antimycobacterial activity against Mycobacterium bovis var. bovis BCG in 7H9 liquid medium after 7 days; assay type: functional; conditions: variant bovis BCG, 168 h
[2] = system: Mycobacterium tuberculosis; assay: Antimycobacterial activity against Mycobacterium bovis var. bovis BCG in 7H11 solid medium after 7 days; assay type: functional; conditions: variant bovis BCG, 168 h

`CC(=O)Oc1ccccc1C(=O)Nc1ncc([N+](=O)[O-])s1` [NITAZOXANIDE] showed an MIC [1] of 16 µg/mL (≈ 52.1 µM) and an MIC [2] of 16 µg/mL (≈ 52.1 µM).
